Laboratory results taken from US6451833B1, “N-substituted (α-imidazolyl-toluyl)pyrrole compounds for treatment of circulatory disorders” (Pharmacia Corporation, priority 1991, dated 2002).

Assays:
[1] = system: AII pressor response; assay: Assay C: In Vivo Intraduodenal Pressor Assay Response for AII Antagonists; design: species or system rat; details: anesthetized Sprague-Dawley rats, 30 mg/kg i.d.; for Assay C Inhibition: inhibition of AII pressor response; for Assay C Duration: time from peak percent inhibition to 50% of peak
Procedure: Male Sprague-Dawley rats weighing 225-300 grams were anesthetized with Inactin (100 mg/kg, i.p.) and catheters were implanted into the trachea, femoral artery, femoral vein and duodenum. Arterial pressure was recorded from the femoral artery catheter on a Gould chart recorder (Gould, Cleveland, Ohio). The femoral vein catheter was used for injections of angiotensin II, mecamylamine and atropine. The tracheal catheter allows for airway patency, and the duodenal catheter was used for intraduodenal (i.d.) administration of test compounds. After surgery, the rats were allowed to equilibrate for 30 minutes. Mecamylamine (3 mg/kg, 0.3 ml/kg) and atropine (400 ug/kg, 0.3 ml/kg) were then given i.v. to produce ganglion blockade. These compounds were administered every 90 minutes throughout the test procedure. Angiotensin II was given in bolus doses i.v. (30 ng/kg in saline with 0.5% bovine serum albumin, 0.1 ml/kg) every 10 minutes three times or until the increase in arterial pressure produced was within 3 mmHg for two consecutive AII injections. The last two AII injections were averaged and were taken as the control AII pressor response. Ten minutes after the final control AII injection, the test compound (dissolved in sodium bicarbonate) was administered i.d. at a dose of 30 mg/kg in a volume of 0.2 ml. Angiotensin II injections were then given 5, 10, 20, 30, 45, 60, 75, 90, and 120 minutes after administration of the test compound and response of arterial pressure was monitored. The response to AII was calculated as percent of the control response and then the percent inhibition is calculated as 100 minus the percent control response. Duration of action of a test compound was defined as the time from peak percent inhibition to 50% of peak. One compound at one dose was tested in each rat. Each test compound was tested in two rats and the values for the two rats were averaged.

[2] = molecular target: smooth muscle angiotensin II receptor; assay: Assay A: Angiotensin II Binding Activity; details: displacement of 125I-AII, rat uterine membrane preparation
Procedure: Compounds of the invention were tested for ability to bind to the smooth muscle angiotensin II receptor using a rat uterine membrane preparation. […] Other chemicals were obtained from Sigma Chemical Co. This assay was carried out according to the method of Douglas et al [Endocrinology, 106, 120-124 (1980)]. Rat uterine membranes were prepared from fresh tissue. All procedures were carried out at 4° C. Uteri were stripped of fat and homogenized in phosphate-buffered saline at pH 7.4 containing 5 mM EDTA. The homogenate was centrifuged at 1500×g for 20 min., and the supernatant was recentrifuged at 100,000×g for 60 min. The pellet was resuspended in buffer consisting of 2 mM EDTA and 50 mM Tris-HCl (pH 7.5) to a final protein concentration of 4 mg/ml. […] The reaction was initiated by the addition of membrane protein and the mixture was incubated at 25° C. for 60 min. The incubation was terminated with ice-cold 50 mM Tris-HCl (pH 7.5) and the mixture was filtered to separate membrane-bound labelled peptide from the free ligand. The incubation tube and filter were washed with ice-cold buffer. Filters were assayed for radioactivity in a Micromedic gamma counter. […] Specific binding was calculated as total binding minus nonspecific binding. […] Binding data were analyzed by a nonlinear least-squares curve fitting program.

[3] = system: rabbit aortic rings; assay: Assay B: In Vitro Vascular Smooth Muscle Response for AII; details: test antagonist at 10^-5 M, AII contraction
Procedure: The compounds of the invention were tested for antagonist activity in rabbit aortic rings. Male New Zealand white rabbits (2-2.5 kg) were sacrificed using an overdose of pentobarbital and exsanguinated via the carotid arteries. The thoracic aorta was removed, cleaned of adherent fat and connective tissue and then cut into 3-mm ring segments. The endothelium was removed from the rings by gently sliding a rolled-up piece of filter paper into the vessel lumen. The rings were then mounted in a water-jacketed tissue bath, maintained at 37° C., between moveable and fixed ends of a stainless steel wire with the moveable end attached to an FT03 Grass transducer coupled to a Model 7D Grass Polygraph for recording isometric force responses. […] The preparations were equilibrated for one hour before approximately one gram of passive tension was placed on the rings. Angiotensin II concentration-response curves were then recorded (3×10^−10 to 1×10^−5 M). Each concentration of AII was allowed to elicit its maximal contraction, and then AII was washed out repeatedly for 30 minutes before rechallenging with a higher concentration of AII. Aorta rings were exposed to the test antagonist at 10^−5 M for 5 minutes before challenging with AII. […] Each test antagonist was evaluated in aorta rings from two rabbits.

| SMILES | Assay C Inhibition [1] | Assay C Duration [1] | melting point | IC50 [2] | Assay B pA2 [3] |
| --- | --- | --- | --- | --- | --- |
| CCCCc1nc(Cl)c(CO)n1Cc1ccc(-n2cccc2C(=O)O)cc1 [Example 2] | 92% | 20 to 30 min | – | – | – |
| CCCCc1nc(CO)c(Cl)n1Cc1ccc(-n2cccc2C(=O)O)cc1 [Example 3] | – | – | 180 to 181 °C | – | – |
| CCCCc1nc(Cl)c(Cl)n1Cc1ccc(-n2cccc2C(=O)O)cc1 [Example 1, 1-[4-[(2-n-Butyl-4,5-dichloro-imidazolyl)methyl]phenyl]-1H-pyrrole-2-carboxylic Acid] | 74% | 5 to 10 min | 181 to 182 °C | 5.8 µM | 5.6 |
